Activity calls are given as the source filed them. No rule for the calls is given here.
Biological target: Muscarinic acetylcholine receptor M4 (Rattus norvegicus) (UniProt P08485)
Assay: acetylcholine potency shift at rat M4, rM4 cells, calcium, ACh concentration-response fold shift (AID 449767)
Conditions: acetylcholine CRC fold-shift, at 30 µM, stronger effect = higher value

Chain of Muscarinic acetylcholine receptor M4 (Rattus norvegicus) (P08485 whole entry, looked up): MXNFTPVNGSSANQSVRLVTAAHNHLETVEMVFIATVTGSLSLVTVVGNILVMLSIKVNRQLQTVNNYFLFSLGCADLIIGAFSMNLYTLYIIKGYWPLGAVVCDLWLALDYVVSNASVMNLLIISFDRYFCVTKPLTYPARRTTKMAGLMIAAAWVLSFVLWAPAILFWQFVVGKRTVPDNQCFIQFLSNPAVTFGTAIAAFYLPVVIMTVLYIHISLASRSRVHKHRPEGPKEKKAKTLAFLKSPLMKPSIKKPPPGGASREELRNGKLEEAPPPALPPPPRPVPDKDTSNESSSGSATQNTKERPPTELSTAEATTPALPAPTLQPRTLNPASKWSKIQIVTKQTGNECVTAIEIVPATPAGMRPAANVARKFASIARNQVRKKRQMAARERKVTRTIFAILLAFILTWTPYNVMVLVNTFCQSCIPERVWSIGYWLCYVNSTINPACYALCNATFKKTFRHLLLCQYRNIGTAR

Row | Structure (SMILES) | fold shift
1 | Cc1cc(OCCN2CCOCC2)nc2sc(C(=O)Nc3ccccc3)c(N)c12 | 51
2 | Cc1cc(C)c2c(N)c(C(=O)NCc3ccc(Cl)cc3)sc2n1 | 48
3 | COc1ccc(CNC(=O)c2sc3nc(C)cc(C)c3c2N)cc1 | 42
4 | Cc1cc(OCCN2CCOCC2)nc2sc(C(=O)NC3COC3)c(N)c12 | 40
5 | Cc1cc(OCCCN(C)C)nc2sc(C(=O)NC3COC3)c(N)c12 | 7
6 | COc1ccc(CNC(=O)c2sc3nc(OCCCN(C)C)cc(C)c3c2N)cc1 | < 1 (inactive)
7 | Cc1cc(OCCN2CCOCC2)nc2sc(C(=O)NC(C)C)c(N)c12 | 36
8 | COc1ccc(CNC(=O)c2sc3nc(OCCN4CCOCC4)cc(C)c3c2N)cc1 | 37
9 | COc1ccc(CNC(=O)c2sc3nc(OCCN4CCCC4)cc(C)c3c2N)cc1 | 25
10 | COCCCNC(=O)c1sc2nc(OCCN3CCOCC3)cc(C)c2c1N | 67
11 | Cc1cc(C)c2c(N)c(C(=O)NCc3ccccc3)sc2n1 | 26
12 | Cc1cc(OCCN2CCOCC2)nc2sc(C(=O)NC(C)(C)C)c(N)c12 | 62
13 | Cc1cc(C)c2c(N)c(C(=O)NCc3ccc4c(c3)OCO4)sc2n1 | 40

Other lines, results leading:

Row | fold shift | Structure (SMILES)
14 | 16 | Cc1cc(C)c2c(N)c(C(=O)NCc3ccccc3F)sc2n1
15 | 4 | COc1ccc(CNC(=O)c2sc3nc(OCc4ccccn4)cc(C)c3c2N)cc1
16 | 50 | COc1ccc(CNC(=O)c2sc3nc(OCc4ccncc4)cc(C)c3c2N)cc1
17 | 41 | Cc1cc(OCc2ccccn2)nc2sc(C(=O)NCc3cc(F)ccc3F)c(N)c12
18 | 64 | Cc1cc(OCc2ccncc2)nc2sc(C(=O)NCc3cc(F)ccc3F)c(N)c12
19 | 18 | Cc1cc(C)c2c(N)c(C(=O)NCc3cccc(F)c3F)sc2n1
20 | 14 | Cc1cc(OCCCN(C)C)nc2sc(C(=O)NCc3cc(F)ccc3F)c(N)c12
21 | 28 | Cc1cc(OCc2ccccn2)nc2sc(C(=O)NCc3cccc(F)c3F)c(N)c12
22 | 9 | COc1ccc(CNC(=O)c2sc3nc(OCc4cccnc4)cc(C)c3c2N)cc1
23 | 36 | Cc1cc(OCc2ccncc2)nc2sc(C(=O)NCc3cccc(F)c3F)c(N)c12
